From PubChem BioAssay (NCI)
Several values for one entry are separate records, joined by “and”; a condition that tells them apart may be missing. Equal values may be shown once.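 How tested: cells in 96-well plates exposed to compound for 48 hours at five concentrations. GI50 is the concentration that inhibits growth by half. Definition used: TGI = concentration required for complete inhibition of growth.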

Legend:
Assay in all cases: DTP human tumour cell line panel, 48 h
MDA-MB-231 breast = tested on: MDA-MB-231 breast
SW-620 colon = tested on: SW-620 colon
ACHN renal = tested on: ACHN renal
HS 578T breast = tested on: HS 578T breast
HL-60(TB) leukemia = tested on: HL-60(TB) leukemia
HCT-15 colon = tested on: HCT-15 colon
A549 NSCLC = tested on: A549 NSCLC
SF-539 CNS = tested on: SF-539 CNS
DMS 273 small cell lung = tested on: DMS 273 small cell lung

Compound	GI50 (MDA-MB-231 breast) [µM]	TGI (MDA-MB-231 breast) [µM]	GI50 (SW-620 colon) [µM]	TGI (SW-620 colon)	GI50 (ACHN renal) [µM]	TGI (ACHN renal)	GI50 (HS 578T breast) [µM]	TGI (HS 578T breast)	GI50 (HL-60(TB) leukemia) [µM]	TGI (HL-60(TB) leukemia) [µM]	GI50 (HCT-15 colon) [µM]	TGI (HCT-15 colon)	GI50 (A549 NSCLC) [µM]	TGI (A549 NSCLC)	GI50 (SF-539 CNS) [µM]	TGI (SF-539 CNS) [µM]	TGI (DMS 273 small cell lung) [µM]
Cc1nc(/N=C(\N)NC(=O)Nc2ccccc2Cl)sc1C	1.06	50.3	0.329	> 100 µM	0.638	7.79 µM	0.548	5.55 µM	0.331	28.9	0.25	> 100 µM	0.675	> 100 µM	0.413	8.34	
O=C1/C(=C\c2coc3ccccc3c2=O)c2ccccc2N1c1c(Cl)cccc1Cl	3.88	> 100	5.28	> 100 µM	4.14	> 100 µM	9.05	> 100 µM	2.08	87.6	0.65	> 100 µM	4.24	> 100 µM	3.06	> 100	
COc1cc([C@@H]2c3cc4c(cc3[C@H](O)[C@H]3COC(=O)[C@H]23)OCO4)cc(OC)c1OC	< 0.01		< 0.01	> 100 µM and 50 µM	< 0.01	> 100 µM and 50 µM	< 0.01	> 100 µM and 50 µM and > 94 µM	< 0.01	< 0.005	< 0.005	> 100 µM and 50 µM	< 0.005	> 100 µM and 50 µM	< 0.01	< 0.005	
Cc1cc(-c2nc(-c3ccc(OC(F)(F)F)cc3)no2)nn1Cc1ccnc(N2CCN(C3CC3)CC2)c1	12.6	> 78.7	> 34.5	> 68.7 µM	3.1	> 100 µM	> 38.4	> 72.6 µM	2.93	> 69.2	3.84	> 62 µM	2.55	> 100 µM	> 33	> 63.8	
COc1cccc(C2NC(=S)NC(C)=C2C(=O)Nc2ccc(F)c(Cl)c2)c1 (centres undefined)	29	> 50	> 50	> 50 µM	23.8	> 50 µM	13.5	40.2 µM	17.4	> 50	23.7	> 50 µM	20.8	> 50 µM	> 50	> 50	
NC(=O)C(NC=O)c1ccccc1 (centres undefined)		> 100		> 100 µM		> 100 µM		> 100 µM		> 100		> 100 µM		> 100 µM		> 100	
COc1cccc(C2C3=C(COC3=O)N(CCO)c3cc4c(cc32)OCCO4)c1 (centres undefined)	0.257	34.5	0.104	> 50 µM	0.769	> 50 µM	0.114	22.1 µM	0.111	0.422	0.21	> 50 µM	0.207	> 50 µM	0.124		
C#COc1cccc(Nc2ncnc3ncc(NC(=O)CCl)cc23)c1	> 27.3	> 62.5		> 62.5 µM		> 62.5 µM	> 62.5	> 62.5 µM	> 21.2	> 45	> 14	> 62.5 µM	> 13.8	> 62.5 µM	> 21.8	> 53.2	
COc1cc2c3c(n(C)c(=O)c2cc1OC)-c1cc2c(cc1/C3=C\CCCBr)OCO2	9.16	> 45.3	> 100	> 100 µM	7.37	25.3 µM	14.4	> 57.4 µM	> 80.3	> 100	34.8	> 86.8 µM	> 100	> 100 µM	10.3	> 41.6	
CCOC(=O)C1=C(C)NC2SC(=O)/C(=C\c3ccccc3)N2C1c1ccccc1 (centres undefined)	> 100	> 100	> 100	> 100 µM	> 100	> 100 µM	> 100	> 100 µM	25.6	> 100	> 100	> 100 µM	> 100	> 100 µM	> 100	> 100	
O=S1(=O)CS(=O)(=O)OCCCO1		> 100		> 100 µM		> 100 µM		> 100 µM		> 100		> 100 µM		> 100 µM		> 100	
CN1c2ccccc2S(=O)(=O)n2c(COc3ccc(Cl)cc3)nnc21		> 100		> 100 µM		> 100 µM		> 100 µM		> 100		> 100 µM		> 100 µM		> 100	
C/C(=C\CCc1ccoc1)CC/C=C(\C)CCCN1CCC(CO)CC1	1.73	4.39	2.06	5.08 µM	4.32	16.7 µM	2.6	8.08 µM	1.96	3.95	3.07	12 µM	3.26	13.8 µM	2.39	6.9	
c1ccc(-c2nn(-c3ccccc3)[n+](-c3cccc4ccccc34)n2)cc1	0.787	12.9	1.44	15.9 µM	12	> 100 µM	1.77	> 100 µM	0.386	2.06	31.5	> 100 µM	2.65	> 100 µM	2.33	27.7	
COc1ccc(Cc2cnc(NC(=O)c3sc4ccccc4c3Cl)s2)cc1	0.585	> 100	0.409	> 100 µM	0.808	> 100 µM	0.336	> 100 µM	0.256	0.642	0.378	> 100 µM	0.571	> 100 µM	0.236	0.674	
CCN(CC)CCNC(=O)c1cccc2cc3ccccc3nc12				> 100 µM		22.3 µM				24.4		32.5 µM		> 100 µM		16.9	24.3
